21 compounds from patent US9957271B2, “Substituted bicyclic aza-heterocycles and analogues as sirtuin modulators” (GlaxoSmithKline, LLC, priority 2012, dated 2018) can be followed below.

In the experiment the target is T1, SIRT1 (Homo sapiens, UniProt Q96EB6).
T1 sequence (Q96EB6 1-747): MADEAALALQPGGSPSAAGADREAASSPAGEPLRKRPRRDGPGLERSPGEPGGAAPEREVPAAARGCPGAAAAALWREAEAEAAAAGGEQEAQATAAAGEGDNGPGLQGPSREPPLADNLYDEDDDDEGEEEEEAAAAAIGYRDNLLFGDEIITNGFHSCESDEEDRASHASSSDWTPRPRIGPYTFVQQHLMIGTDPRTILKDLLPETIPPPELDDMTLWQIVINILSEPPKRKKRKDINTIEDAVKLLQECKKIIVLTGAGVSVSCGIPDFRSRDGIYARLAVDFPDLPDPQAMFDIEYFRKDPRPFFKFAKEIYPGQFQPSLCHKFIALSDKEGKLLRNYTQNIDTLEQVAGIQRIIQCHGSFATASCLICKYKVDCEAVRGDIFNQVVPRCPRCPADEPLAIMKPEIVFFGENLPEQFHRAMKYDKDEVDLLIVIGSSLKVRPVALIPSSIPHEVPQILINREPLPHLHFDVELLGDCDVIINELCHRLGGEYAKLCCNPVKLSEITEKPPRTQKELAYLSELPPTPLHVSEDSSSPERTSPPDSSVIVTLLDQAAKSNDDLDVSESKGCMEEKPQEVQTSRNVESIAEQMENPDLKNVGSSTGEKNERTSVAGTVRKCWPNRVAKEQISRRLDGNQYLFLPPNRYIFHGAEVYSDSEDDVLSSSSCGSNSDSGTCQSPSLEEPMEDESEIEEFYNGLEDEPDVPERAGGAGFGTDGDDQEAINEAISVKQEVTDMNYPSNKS
Description: TAMRA based mass spectrometry assay of SIRT1 activity. It is filed as biochemical. To be noted: TAMRA peptide substrate; for TAMRA EC1.5: concentration giving 150% activation of SIRT1; for Emax: percent maximum fold activation, read-out: TAMRA % Fold Act. The procedure, abridged:
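Recombinant N-terminal His-tagged human SIRT1 (10 nM, E. coli) incubated 25 min at 25 °C with 0.5 μM 5TMR-labelled p53-derived acetyl-peptide and 120 μM βNAD+ in Tris-acetate pH 8 buffer with DTT and 0.05% BSA, compound at varying concentrations. Stopped with formic acid; deacetylated peptide or OAADPR measured by mass spectrometry relative to DMSO controls.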

Molecules are shown by their SMILES.

Regarding `COc1nccc(NC(=O)c2cnn3ccc(-c4ccccc4C(F)(F)F)nc23)n1` [Compound 519], the “TAMRA EC1.5” value is given as “A (EC1.5<1 μM)” and the Emax was at least 350%.
For `O=C(Nc1cnn2ccc(-c3ccccc3C(F)(F)F)nc12)c1cccc(O)n1` [Compound 520] the same measures were “B (EC1.5 1-25 μM)” and under 350%.
In the same order, the values of `Cc1cccc(C(=O)Nc2cnn3ccc(-c4ccccc4C(F)(F)F)nc23)n1` [Compound 522] are “A (EC1.5<1 μM)” and at least 350%.
In the same order, the values of `Cc1cnc(C(=O)Nc2cnn3ccc(-c4ccccc4C(F)(F)F)nc23)s1` [Compound 525] are “A (EC1.5<1 μM)” and at least 350%.
With `Cc1nc(C(=O)Nc2cnn3ccc(-c4ccccc4C(F)(F)F)nc23)c(C)s1` [Compound 526], the “TAMRA EC1.5” value is listed as “A (EC1.5<1 μM)” and the Emax was at least 350%.
In the same order, the values of `Cc1cc(NC(=O)c2cnc3c(C)cc(-c4ccccc4C(F)(F)F)nn23)cc(C)n1` [Compound 528] are “A (EC1.5<1 μM)” and at least 350%.
As to `O=C(Nc1ccncc1)c1cnn2ccc(-c3ccccc3OC(F)(F)F)nc12` [Compound 531], the “TAMRA EC1.5” value was “A (EC1.5<1 μM)” and the Emax is at least 350%.
Take `O=C(Nc1cnccn1)c1cnn2ccc(-c3ccccc3OC(F)(F)F)nc12` [Compound 532]: the “TAMRA EC1.5” value was “A (EC1.5<1 μM)” and the Emax is at least 350%.
In the same order, the values of `O=C(Nc1cccc(N2CCOCC2)n1)c1cnn2ccc(-c3ccccc3OC(F)(F)F)nc12` [Compound 534] are “A (EC1.5<1 μM)” and at least 350%.
Take `O=C(Nc1cccc(N2CC3(COC3)C2)n1)c1cnc2ccc(-c3ccccc3C(F)(F)F)nn12` [Compound 537]: the “TAMRA EC1.5” value is listed as “A (EC1.5<1 μM)” and the Emax was at least 350%.
In the same order, the values of `O=C(Nc1cccc(N2CC3(CCO3)C2)n1)c1cnc2ccc(-c3ccccc3C(F)(F)F)nn12` [Compound 538] are “A (EC1.5<1 μM)” and at least 350%.
In the same order, the values of `Cc1cccc(NC(=O)c2cnc3c(C)cc(-c4ccccc4C(F)(F)F)nn23)n1` [Compound 539] are “A (EC1.5<1 μM)” and at least 350%.
In the same order, the values of `Cc1cc(NC(=O)c2cnc3c(C)cc(-c4ccccc4C(F)(F)F)nn23)ccn1` [Compound 540] are “A (EC1.5<1 μM)” and at least 350%.
Regarding `COc1nccc(NC(=O)c2c(C)nc3c(C)cc(-c4ccccc4C(F)(F)F)nn23)n1` [Compound 543], the “TAMRA EC1.5” value was “A (EC1.5<1 μM)” and the Emax is at least 350%.
Consider `Cc1nc2c(C)cc(-c3ccccc3C(F)(F)F)nn2c1C(=O)Nc1cccc(N2CC3(CCO3)C2)n1` [Compound 544], for which the “TAMRA EC1.5” value is listed as “A (EC1.5<1 μM)” and the Emax is at least 350%.
For `Cc1cc(-c2ccccc2C(F)(F)F)nn2c(C(=O)Nc3cccc(N4CC5(COC5)C4)n3)cnc12` [Compound 546] the same measures were “A (EC1.5<1 μM)” and at least 350%.
For `Cc1nn2ccc(-c3ccccc3C(F)(F)F)nc2c1C(=O)Nc1ccncn1` [Compound 547] the same measures were “A (EC1.5<1 μM)” and at least 350%.
For `Cc1nn2ccc(-c3ccccc3C(F)(F)F)nc2c1C(=O)Nc1ccccn1` [Compound 548] the same measures were “A (EC1.5<1 μM)” and at least 350%.
On to `Cc1nn2ccc(-c3ccccc3C(F)(F)F)nc2c1C(=O)Nc1cccc(CN2CCOCC2)n1` [Compound 550], for which the “TAMRA EC1.5” value is listed as “A (EC1.5<1 μM)” and the Emax was at least 350%.
For `O=C(Nc1cccc(OC[C@H](O)CO)n1)c1cnc2ccc(-c3ccccc3C(F)(F)F)nn12` [Compound 553] the same measures were “A (EC1.5<1 μM)” and at least 350%.
For `O=C(Nc1cccc(OC[C@@H](O)CO)n1)c1cnc2ccc(-c3ccccc3C(F)(F)F)nn12` [Compound 554] the same measures were “A (EC1.5<1 μM)” and at least 350%.
